We go through 21 compounds from patent US7469185B2, “Primary rat hepatocyte toxicity modeling” (Ocimum Biosolutions, Inc., priority 2002, dated 2008).

One series is described as follows: in vitro. The following applies: male, Sprague-Dawley, rat. The method, then: (§1) Identification of toxicity markers was performed by microarray analysis and by the AlamarBlue® assay, a classical measure of cytotoxicity. The AlamarBlue® assay was performed in triplicate.
(§2) The source of the primary rat hepatocytes was Sprague Dawley Outbred CDs Rats (CRL:CD®[SD] IGS BR, Charles River Laboratories). […] Primary rat hepatocytes were received the day after the cells were removed from the animals. After arrival, the cells, the cells were incubated overnight (˜15 hrs) before the toxin was added to the cultures. […] Toxin or vehicle was administered to hepatocyte cultures as follows. For each treatment, i.e., vehicle alone, vehicle+toxin at low dose, or vehicle+toxin at high dose, cells were harvested after 3, 6 and 24-hour incubations with the toxin solution or with the vehicle.
(§3) The AlamarBlue® assay was performed as follows, using only the 24-hour time point samples. • 1. […] The culture medium (HIM) was removed from each well and replaced with 500 μl of fresh HIM following arrival of the cells, and the cells were incubated overnight (approximately 15 hrs) at 37° C., 5% CO2. • 3. The next day, the HIM was removed and 500 μl of the medium containing either vehicle or a dose of toxin was added. • 4. Lysis solution was used as a negative control. 450 μl medium+50 μl 9% Triton X100 were added to each of 3 wells containing cells, for a final Triton concentration of 1%. • 5. The cells in all wells were incubated for 24 hours at 37° C., 5% CO2. • 6. HIM medium was removed, and a solution containing 500 μl of fresh HIM medium+50 μl AlamarBlue® (BioSource International, Inc., Cat. No. DAL1100) was added to each well. • 7. The cells were incubated at 37° C., 5% CO2 for 2 hours. • 8. 100 μl medium was removed from each well of the 24-well plate and added to a well of a 96-well plate. […] Alternatively, two absorbance readings can be measured for the oxidized (600 nm) and the reduced (570 nm) form of AlamarBlueg. After obtaining absorbance readings, results were calculated according to the manufacturer's protocol provided in the product description. • 9. The data were evaluated to determine whether or not the toxin reduced cell viability. If so, the dose of the toxin that reduced cell viability by ˜10-20% was determined. Collection of RNA from Rat Hepatocytes

Series [1] deals with male Sprague Dawley (SD) rats. The following applies: within 48 hours post dose; 0.1, 1, 2, 3, 4 mL/kg ip; […] po; cited from earlier work.
Series [2] deals with rats. Briefly: AY-25329 14 day rat study: serum chemistry and light microscopy. It counts as in vivo. An excerpt:
The present inventors have noted indications of liver and renal effects of AY-25329 by changes in serum chemistry. […] Most of these markers of renal and liver dysfunction remained altered throughout the 14 day study period.

Series [3] deals with rats. Nature of the series: Lovastatin dosing of rats, liver tissue examination. It counts as in vivo, rat.
For series [4] the following is noted: oral doses; cited from earlier work.
Another series concerns primary rat hepatocytes. Briefly: AlamarBlue cell viability assay. As to conditions: 24 hours. The method, then:
as §1, §2, §3
For orientation: Resazurin is reduced to fluorescent resorufin, in cell work by metabolically active cells.

In series [5] the test system is patients. The following applies: 180 reported cases; cited from earlier work.
In series [6] the test system is patients. The following applies: human, in vivo; cited from earlier work.

For orientation: viability means a read-out of living cells in per cent, often relative to untreated cells. High values mean better survival, low ones a greater loss of cells. Turning to `NC(=O)N1c2ccccc2C=Cc2ccccc21` [Carbamazepine], in the series “in vitro”, the viability at 24 h, 0.01 mM was about 100% and the viability at 24 h, 1 mM is about 90%.

Consider `CCOC(=O)C(C)(C)Oc1ccc(Cl)cc1` [Clofibrate], for which, in “in vitro”, the viability at 24 h, 0.5 mM was about 100% and the viability at 24 h, 5 mM fell in the range of 80 to 85%.

In the series “in vitro”, `ClC(Cl)(Cl)Cl` [CCl4, carbon tetrachloride] had a viability at 24 h, 0.1 mM of about 100% and a viability at 24 h, 10 mM of 80 to 85%. The “ALT and AST peak levels, fold increases” value in series [1] was 5-10 fold.

For the compound `O=C(CCN1CCN2CCCC2C1)N1c2ccccc2Sc2ccc(Cl)cc21` (stereo not shown) [AY-25329], in “in vitro”, the viability at 24 h, 5 uM was about 100% and the viability at 24 h, 50 uM is about 90%. Besides, the “light microscopic analysis, effects in the liver” value with rats [2] (6 and 24 hours) was “increased number of hepatocytic mitotic figures and decreased glycogen content”. Also, the “findings after repeated dosing” value with rats [2] (14 days of repeated dosing, 250 mg/kg/day) was “nephrosis and alterations in the peripheral lobes of the liver and in the cytoplasm of hepatocytes”. Also, the “serum levels of creatinine, BUN, ALT, triglycerides and cholesterol” value in the series on rats [2] (as early as 6 hours after the first dose) was “statistically significant increases”.

In “in vitro”, `CC/C(=C(\c1ccccc1)c1ccc(OCCN(C)C)cc1)c1ccccc1` [Tamoxifen] registered a viability at 24 h, 4 uM of about 100% and a viability at 24 h, 40 uM of about 45%.

In “in vitro”, `Cc1cccc(Nc2cc(Cl)nc(SCC(=O)O)n2)c1C` [Wy-14643] registered a viability at 24 h, 10 uM of about 100% and a viability at 24 h, 100 uM of about 90%.

Take `CC[C@H](C)C(=O)O[C@H]1C[C@@H](C)C=C2C=C[C@H](C)[C@H](CC[C@@H]3C[C@@H](O)CC(=O)O3)[C@H]21` [Lovastatin]: in the series “in vitro”, the viability at 24 h, 0.1 mM was about 100% and the viability at 24 h, 1 mM is about 100%. Moreover, in the series on rats [3] (9 or 90 mg/kg twice a day, after 6 or after 24 hours), the “effects in liver tissue” value is given as “no effects were noted”. The “effects in liver cells” value in the series on rats [3] (after 14 days of treatment at the higher dosage (90 mg/kg twice a day)) is “abnormal vacuolization of the cytoplasm”. Further, the “metabolites excreted in the urine” value in series [4] is “less than 13%”.

For the compound `CC(=O)O[C@]1(C(C)=O)CC[C@H]2[C@@H]3C=C(Cl)C4=CC(=O)[C@@H]5C[C@@H]5[C@]4(C)[C@H]3CC[C@@]21C` [Cyproterone acetate], in the series “in vitro”, the viability at 24 h, 40 uM was about 100% and the viability at 24 h, 400 uM is 65 to 70%.

In the case of `CN(C)N=O` [DMN, dimethylnitrosamine], the “% viability by AlamarBlue test” value in the series with primary rat hepatocytes (high dose 100 mM) is ~80-85%; in the series on primary rat hepatocytes (low dose 1 mM), about 100%.

`O=C(O)Cc1ccccc1Nc1c(Cl)cccc1Cl` [Diclofenac]: in “in vitro”, the viability at 24 h, 55 uM is about 100% and the viability at 24 h, 550 uM was about 70%. In addition, the “jaundice, share of the symptomatic patients” value with patients [5] was 75%.

On to `S=C=Nc1cccc2ccccc12` [ANIT, α-naphthylisothiocyanate], for which, in “in vitro”, the viability at 24 h, 25 uM was about 100% and the viability at 24 h, 250 uM was about 60%.

In the case of `C#C[C@]1(O)CC[C@H]2[C@@H]3CCc4cc(O)ccc4[C@H]3CC[C@@]21C` [17α-ethinylestradiol], the “% viability by AlamarBlue test” value in the series on primary rat hepatocytes (high dose 100 uM) was about 80%; in the series on primary rat hepatocytes (low dose 10 uM), about 100%.

For the compound `NN` [Hydrazine], in “in vitro”, the viability at 24 h, 0.1 mM fell in the range of 90 to 95% and the viability at 24 h, 1 mM is 80 to 85%.

Turning to `Cc1ccc(C)c(OCCCC(C)(C)C(=O)O)c1` [Gemfibrozil, gemfibrozil], in the series “in vitro”, the viability at 24 h, 0.3 mM is about 100% and the viability at 24 h, 3 mM is about 50%.

In “in vitro”, `CCC1(c2ccccc2)C(=O)NC(=O)NC1=O` [Phenobarbital] had a viability at 24 h, 0.8 mM of about 100% and a viability at 24 h, 8 mM of over 95%.

In “in vitro”, `O=C(O)c1cc(-c2ccc(F)cc2F)ccc1O` [Diflunisal] showed a viability at 24 h, 30 uM of about 100% and a viability at 24 h, 300 uM of 85 to 90%.

Compound `CCCC(CCC)C(=O)O` [Valproate, n-dipropylacetic acid] returned a viability at 24 h, 0.4 mg/ml in “in vitro” of about 100%. Also, the “patients with elevated levels of hepatic enzymes” value in the series with patients [6] was “about 40%”.

For the compound `CN(Cc1cnc2nc(N)nc(N)c2n1)c1ccc(C(=O)N[C@@H](CCC(=O)O)C(=O)O)cc1` [Methotrexate], in the series “in vitro”, the viability at 24 h, 1 mM is about 100% and the viability at 24 h, 10 mM is about 90%.

In “in vitro”, `CN(C)[C@@H]1C(O)=C(C(N)=O)C(=O)[C@@]2(O)C(O)=C3C(=O)c4c(O)cccc4[C@@](C)(O)[C@H]3C[C@@H]12` [Tetracycline] returned a viability at 24 h, 0.1 mM of about 100% and a viability at 24 h, 1 mM of 85 to 90%.

In the series “in vitro”, `CN(C)CCCN1c2ccccc2Sc2ccc(Cl)cc21` [Chlorpromazine] had a viability at 24 h, 3 uM of about 100%.

With `COc1ccc2c(c1)c(CC(=O)O)c(C)n2C(=O)c1ccc(Cl)cc1` [Indomethacin], in the series “in vitro”, the viability at 24 h, 0.1 mM is about 100% and the viability at 24 h, 1 mM was in the range of 85 to 90%.
